The results in this text go back to PMC6423038, “Deferiprone: Pan-selective Histone Lysine Demethylase Inhibition Activity and Structure Activity Relationship Study” (Scientific Reports, 2019).

Test [1] deals with T1, KDM6A (UTX) (Homo sapiens, UniProt O15550).
T1 construct: purchased BPS Bioscience
The test is described as follows: KDM cell-free assay (AlphaScreen, BPS Bioscience). The test is classed as biochemical. Particulars: recombinant human KDM6A (UTX); read-out: IC50.

For test [2], the system named is MCF-7. The test is described as follows: Cell viability assay (MTS), antiproliferative activity. Particulars: Homo sapiens, MCF7, 72 h, Table 4. The test is classed as cell-based. Here is the method: (§1) To preliminarily profile the bioactivity of these compounds, we adopted a streamlined approach which involved screening against KDM6A at two concentrations and evaluating antiproliferative activity against three representative cell lines – MCF-7 (ER(+) BCa), MDA-MB-231 (TNBC BCa) and Vero (a non-transformed cell line as control).
(§2) The In vitro proliferation assay was performed as reported previously[15],[16]. Detailed description of the protocol used is included in the Supplementary Information.
(§3) Cell Viability Assay. All cell lines were purchased form ATCC (Manassas, VA), and they were routinely cultured in different media recommended by the supplier. MCF-7 cells were cultured in non-phenol red DMEM (Corning, Manassas, VA) fortified with 10% charcoal treated fetal bovine serum (FBS; Atlanta Biologicals, GA) and 0.2 mM glutamine (Corning, Manassas, VA), whereas MDA-MB-231, DU-145, and Vero were cultured in DMEM with 10% FBS. […] After 24 h incubation in 37 °C under 5% CO2, cells were treated with serially diluted ligands with final DMSO concentration of 1% and incubated for additional 72 h. MTS (CellTiter 96 Aqueous One Solution Cell Proliferation Assays, Promega, Madison, WI) was added to each well 2.5 h prior to recording the absorbance at 490 nm.

Test [3] deals with MDA-MB-231. Described as above. The test is classed as cell-based. Particulars: Homo sapiens, 72 h, Table 4. Here is the method:
as §1, §2, §3

In test [4] the test system is VERO. The description is as above. In kind it is cell-based. Particulars: Chlorocebus sabaeus, 72 h, Table 4. Here is the method:
as §1, §2, §3

For test [5], the target named is KDM3B (JMJD1B) (Homo sapiens, UniProt Q7LBC6). The experiment in a line: KDM cell-free assay (AlphaScreen, BPS Bioscience). On the technique in general: In Alpha technology, singlet oxygen from a donor bead excites a nearby acceptor bead.
Test [6] deals with KDM4B (JMJD2B) (Homo sapiens, UniProt O94953). The experiment in a line: KDM cell-free assay (AlphaScreen, BPS Bioscience).
Test [7] deals with KDM5B (Jarid1B) (Homo sapiens, UniProt Q9UGL1). The test is described as follows: KDM cell-free assay (AlphaScreen, BPS Bioscience).
The target in test [8] is KDM6B (JMJD3) (Homo sapiens, UniProt O15054). The experiment in a line: KDM cell-free assay (AlphaScreen, BPS Bioscience).

The structures appear in SMILES notation.

The term IC50 denotes the concentration at which inhibition is half-maximal.

Sequence of KDM4B (JMJD2B) (O94953 whole entry): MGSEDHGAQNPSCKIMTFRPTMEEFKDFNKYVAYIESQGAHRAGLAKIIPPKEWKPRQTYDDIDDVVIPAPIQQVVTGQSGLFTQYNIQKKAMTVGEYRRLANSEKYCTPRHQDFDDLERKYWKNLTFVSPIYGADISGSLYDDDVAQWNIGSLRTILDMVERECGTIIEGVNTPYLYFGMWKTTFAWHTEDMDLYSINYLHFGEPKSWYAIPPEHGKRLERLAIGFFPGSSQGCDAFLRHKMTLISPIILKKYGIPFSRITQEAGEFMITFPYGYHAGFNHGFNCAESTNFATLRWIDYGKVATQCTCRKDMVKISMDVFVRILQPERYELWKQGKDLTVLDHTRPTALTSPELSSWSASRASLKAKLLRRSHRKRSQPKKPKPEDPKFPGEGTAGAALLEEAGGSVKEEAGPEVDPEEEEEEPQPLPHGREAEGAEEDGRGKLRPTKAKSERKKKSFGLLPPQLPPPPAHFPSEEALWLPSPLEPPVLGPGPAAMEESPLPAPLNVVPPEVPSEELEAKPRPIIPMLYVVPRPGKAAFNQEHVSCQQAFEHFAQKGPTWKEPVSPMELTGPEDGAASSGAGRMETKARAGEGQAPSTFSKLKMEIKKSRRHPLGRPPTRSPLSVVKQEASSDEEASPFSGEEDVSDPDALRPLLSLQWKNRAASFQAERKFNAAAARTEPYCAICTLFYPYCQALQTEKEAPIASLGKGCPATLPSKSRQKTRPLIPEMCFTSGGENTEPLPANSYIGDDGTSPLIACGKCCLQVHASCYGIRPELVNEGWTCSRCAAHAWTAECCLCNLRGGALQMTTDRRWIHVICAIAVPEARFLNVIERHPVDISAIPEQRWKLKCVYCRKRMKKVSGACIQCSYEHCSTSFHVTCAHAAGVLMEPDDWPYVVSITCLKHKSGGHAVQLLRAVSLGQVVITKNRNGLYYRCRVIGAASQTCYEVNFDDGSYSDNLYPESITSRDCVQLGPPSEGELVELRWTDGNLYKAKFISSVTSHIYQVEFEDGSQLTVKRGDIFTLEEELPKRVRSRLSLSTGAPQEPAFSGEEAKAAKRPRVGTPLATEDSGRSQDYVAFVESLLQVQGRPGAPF
Sequence of KDM3B (JMJD1B) (Q7LBC6 whole entry): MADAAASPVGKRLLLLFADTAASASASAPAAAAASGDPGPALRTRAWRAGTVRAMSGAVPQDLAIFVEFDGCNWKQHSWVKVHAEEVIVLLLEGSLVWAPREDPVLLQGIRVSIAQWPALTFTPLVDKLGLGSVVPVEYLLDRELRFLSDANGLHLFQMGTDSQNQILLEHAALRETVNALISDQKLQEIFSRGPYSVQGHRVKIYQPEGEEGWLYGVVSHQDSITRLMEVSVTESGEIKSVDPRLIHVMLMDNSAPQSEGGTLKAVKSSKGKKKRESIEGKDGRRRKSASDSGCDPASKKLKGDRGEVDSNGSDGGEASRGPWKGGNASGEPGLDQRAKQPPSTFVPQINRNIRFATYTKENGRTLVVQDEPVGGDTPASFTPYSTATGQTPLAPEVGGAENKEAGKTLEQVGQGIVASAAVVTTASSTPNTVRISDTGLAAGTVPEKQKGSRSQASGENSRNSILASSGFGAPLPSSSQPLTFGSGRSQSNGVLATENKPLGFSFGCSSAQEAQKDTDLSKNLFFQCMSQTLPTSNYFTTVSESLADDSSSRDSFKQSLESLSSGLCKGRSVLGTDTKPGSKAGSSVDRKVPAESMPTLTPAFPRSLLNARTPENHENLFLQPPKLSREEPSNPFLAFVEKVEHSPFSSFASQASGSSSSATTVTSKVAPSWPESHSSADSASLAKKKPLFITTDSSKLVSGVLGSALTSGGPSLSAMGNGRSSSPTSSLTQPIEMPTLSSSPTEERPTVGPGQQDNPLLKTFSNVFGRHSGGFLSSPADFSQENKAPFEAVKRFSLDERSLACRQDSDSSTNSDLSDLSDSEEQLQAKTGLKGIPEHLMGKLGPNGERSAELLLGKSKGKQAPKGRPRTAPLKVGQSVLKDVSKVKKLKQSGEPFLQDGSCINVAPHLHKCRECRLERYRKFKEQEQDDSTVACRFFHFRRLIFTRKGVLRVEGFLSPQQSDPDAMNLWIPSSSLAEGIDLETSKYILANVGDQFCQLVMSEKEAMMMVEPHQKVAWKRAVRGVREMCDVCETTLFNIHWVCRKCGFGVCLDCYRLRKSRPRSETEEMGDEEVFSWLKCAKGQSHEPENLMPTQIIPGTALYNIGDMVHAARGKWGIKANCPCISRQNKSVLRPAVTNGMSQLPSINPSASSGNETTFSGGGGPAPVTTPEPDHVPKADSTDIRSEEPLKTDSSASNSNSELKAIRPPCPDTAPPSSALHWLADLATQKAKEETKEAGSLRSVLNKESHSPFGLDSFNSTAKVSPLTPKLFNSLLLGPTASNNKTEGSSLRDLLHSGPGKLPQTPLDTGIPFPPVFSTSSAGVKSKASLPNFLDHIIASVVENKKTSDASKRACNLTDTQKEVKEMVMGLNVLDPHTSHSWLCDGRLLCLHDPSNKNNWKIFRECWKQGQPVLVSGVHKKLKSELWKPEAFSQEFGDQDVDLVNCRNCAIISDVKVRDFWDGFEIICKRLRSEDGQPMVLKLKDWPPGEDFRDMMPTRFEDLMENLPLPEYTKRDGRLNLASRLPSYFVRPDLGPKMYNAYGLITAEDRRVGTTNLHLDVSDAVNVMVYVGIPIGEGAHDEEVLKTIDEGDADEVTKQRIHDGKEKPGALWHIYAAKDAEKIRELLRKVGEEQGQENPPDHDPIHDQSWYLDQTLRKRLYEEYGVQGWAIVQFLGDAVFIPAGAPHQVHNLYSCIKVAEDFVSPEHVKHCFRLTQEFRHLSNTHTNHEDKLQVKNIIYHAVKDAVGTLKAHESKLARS
Sequence of KDM6B (JMJD3) (O15054 whole entry): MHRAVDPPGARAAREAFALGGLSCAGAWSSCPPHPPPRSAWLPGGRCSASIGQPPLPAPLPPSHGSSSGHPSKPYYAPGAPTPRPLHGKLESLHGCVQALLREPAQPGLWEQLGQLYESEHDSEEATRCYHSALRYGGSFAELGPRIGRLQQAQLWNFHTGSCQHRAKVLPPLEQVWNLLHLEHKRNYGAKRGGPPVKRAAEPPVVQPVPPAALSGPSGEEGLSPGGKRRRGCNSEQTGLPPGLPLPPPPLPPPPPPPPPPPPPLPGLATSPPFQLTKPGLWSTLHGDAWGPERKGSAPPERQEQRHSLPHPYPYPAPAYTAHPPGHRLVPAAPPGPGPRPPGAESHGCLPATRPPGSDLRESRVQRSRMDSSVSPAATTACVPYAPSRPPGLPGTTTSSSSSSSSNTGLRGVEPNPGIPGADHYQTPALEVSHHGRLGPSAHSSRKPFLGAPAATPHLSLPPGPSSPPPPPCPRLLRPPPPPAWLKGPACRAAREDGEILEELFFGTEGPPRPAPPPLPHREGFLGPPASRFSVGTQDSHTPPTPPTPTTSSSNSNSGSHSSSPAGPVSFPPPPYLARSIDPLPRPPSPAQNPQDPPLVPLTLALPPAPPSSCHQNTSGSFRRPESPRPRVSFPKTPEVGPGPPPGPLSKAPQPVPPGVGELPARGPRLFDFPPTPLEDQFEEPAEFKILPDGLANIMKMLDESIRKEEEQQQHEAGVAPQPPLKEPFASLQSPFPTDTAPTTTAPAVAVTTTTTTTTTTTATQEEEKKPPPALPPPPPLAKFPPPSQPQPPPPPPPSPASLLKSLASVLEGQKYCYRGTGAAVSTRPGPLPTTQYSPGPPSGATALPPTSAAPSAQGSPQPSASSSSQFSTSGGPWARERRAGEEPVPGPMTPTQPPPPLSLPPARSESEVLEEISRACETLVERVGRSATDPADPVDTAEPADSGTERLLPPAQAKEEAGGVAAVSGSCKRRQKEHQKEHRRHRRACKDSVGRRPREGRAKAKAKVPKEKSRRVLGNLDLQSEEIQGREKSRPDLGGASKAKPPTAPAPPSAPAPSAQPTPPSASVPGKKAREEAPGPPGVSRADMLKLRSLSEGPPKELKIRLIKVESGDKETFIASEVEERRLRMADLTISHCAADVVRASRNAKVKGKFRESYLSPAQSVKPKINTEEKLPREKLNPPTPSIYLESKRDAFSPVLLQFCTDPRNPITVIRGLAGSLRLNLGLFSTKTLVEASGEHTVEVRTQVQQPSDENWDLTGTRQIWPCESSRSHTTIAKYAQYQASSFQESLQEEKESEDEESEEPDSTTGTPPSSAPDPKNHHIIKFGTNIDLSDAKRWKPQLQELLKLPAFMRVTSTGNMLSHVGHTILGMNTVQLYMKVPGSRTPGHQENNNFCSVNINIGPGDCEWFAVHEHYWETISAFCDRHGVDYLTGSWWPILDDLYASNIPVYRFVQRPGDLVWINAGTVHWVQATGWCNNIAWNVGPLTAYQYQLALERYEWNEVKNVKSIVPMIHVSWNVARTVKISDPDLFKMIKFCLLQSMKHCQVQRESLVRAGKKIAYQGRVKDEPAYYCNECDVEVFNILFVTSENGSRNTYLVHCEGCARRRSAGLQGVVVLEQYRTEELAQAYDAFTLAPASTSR

With `Cc1c(O)c(=O)ccn1C` [DFP, Deferiprone], the IC50 in test [1] is 4.2 µM; in test [2] it was 134 µM; in test [3], 112 µM; in test [4] it was 85.9 µM; in test [5], above 25 µM; in test [6], above 25 µM. Moreover, the IC50 in test [7] and in test [8] was above 25 µM each time.
